The record followed here is PubChem BioAssay AID504313 (Emory University Molecular Libraries Screening Center, 2011).

Active and inactive are the calls of the source. The rule behind the calls is not given here. A value given as a limit tells only on which side of the number the result lay.

The experiment concerns the target X-box-binding protein 1 (Homo sapiens) (UniProt P17861). The experiment can be described thus: inhibitors of XBP1 reporter signal, dose response, counter-screen, cell-based (AID 504313).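 Note: CHO cells carrying an XBP1 reporter stimulated with tunicamycin; potency is for inhibition of the tunicamycin-induced reporter signal.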 To be noted: XBP1 reporter cell assay, percent of control. On the technique in general: The purpose of a counterscreen is to sort out artefacts and off-target activity.

By IC50 is commonly meant the concentration at which inhibition is half-maximal. For `FC(F)(F)c1cccc(NC(=S)NC(c2ccccc2)c2ccccc2)c1`, the IC50 is > 10 µM (inactive).

For `Cc1ccc(C(=O)CC(=O)c2cc(Cl)ccc2O)cc1`, the IC50 result is “inactive”. As to `NS(=O)(=O)c1ccc(N/N=C2/CCCCC2C2CCCCC2)c([N+](=O)[O-])c1` (stereo not given), the IC50 is 4.48 µM.

Turning to `O=C(Cc1csc(Nc2nc(=S)[nH]c3ccccc23)n1)NCCCN1CCN(c2ccccc2F)CC1`, the IC50 is > 10 µM (inactive). For `C=CCn1c(O)c(C(CC)=Nc2ccc(N(CC)CC)cc2)c(=O)[nH]c1=O`, the IC50 result is “inactive”.

Regarding `O=[N+]([O-])c1c(NCCCO)cc(Sc2nc3ccccc3s2)c2nonc12`, the IC50 entry was “inactive”.

`CCn1c(=O)c(C(=O)Nc2nc3ccccc3[nH]2)c(O)c2ccccc21`: the IC50 entry is “inactive”. As for `Cc1nc(Nc2ccc(F)cc2)[nH]c(=O)c1CCC(C)C`, the IC50 result was “inactive”.

On to `CCn1cc([N+](=O)[O-])c(C(=O)N2N=C(c3ccc(Cl)c(Cl)c3)CC2c2ccccc2O)n1` (stereo not given), for which the IC50 is > 10 µM (inactive).

For `CC(C)(C)OC(=O)NCCc1nnc(S(=O)(=O)Cc2ccc(Cl)cc2Cl)o1`, the IC50 is 4.44 µM. The same measure for `Cc1ccc(S(=O)(=O)/N=C2/C=C(Sc3ncn[nH]3)C(=O)c3ccccc32)cc1`: “inactive”. Take `O=C1CC(c2ccccc2)CC(O)=C1C=Nc1cccc(Cl)c1` (stereo not given): the IC50 was > 10 µM (inactive). The same measure for `Cc1ccn2cc(-c3cc4ccccc4oc3=O)nc2c1`: “inactive”. As for `COc1ccc2c(C)nc(Nc3nc(C)c(C)c(=O)[nH]3)nc2c1`, the IC50 was < 0.16 µM. As to `Cc1nn(-c2ccccc2Cl)c(Cl)c1/C=N/Nc1nc2ccccc2s1`, the IC50 is < 0.16 µM.

Consider `COc1ccccc1-c1cc(C(F)(F)F)nc(S(=O)(=O)CCCC(=O)Nc2cc(C)on2)n1`, for which the IC50 result is “inactive”. As to `CC1(c2ccccc2)CC(C)(C)N2C(=O)C3(C(C#N)=C(N)Oc4cc(O)ccc43)c3cccc1c32` (stereo not given), the IC50 was > 10 µM (inactive). Consider `CCCCCCCn1c(=O)c(C(=O)Nc2cnccn2)c(O)c2ccccc21`, for which the IC50 was 2.1 µM.

For `CCOc1cc(/C=C2/C(=O)ON=C2C)ccc1OCc1ccc(F)cc1`, the IC50 is > 10 µM (inactive). `CCN1/C(=C/C=C/C=C/c2sc3ccccc3[n+]2CC)Sc2ccccc21`: the IC50 is 2.4 µM. As to `CC(=O)C1=C(S(=O)(=O)c2ccc(C)cc2)CS(=O)(=O)C1`, the IC50 was > 10 µM (inactive).

Consider `O=C1N(c2ccccc2)C[C@@H]2C[C@@H](c3cccs3)N3CCC[C@@]123`, for which the IC50 is 2.84 µM.

Take `C/C(=N\NC(=O)c1nn(C)c(C)c1Br)c1ccc(NC(=O)c2ccoc2C)cc1`: the IC50 is > 10 µM (inactive). Take `Cc1cccc(NC2=C/C(=N/S(=O)(=O)c3cccs3)c3ccccc3C2=O)c1`: the IC50 was 1.31 µM. Regarding `CC(=O)OCC1O[C@@H](O[C@@H]2C[C@H]3C(C)(C)[C@H](OC(C)=O)CC[C@]3(C)[C@H]3CC[C@]45C[C@]4(CC[C@H]5[C@@H](C)C[C@@H](O)[C@H](O)C(C)(C)O)[C@@]32C)[C@H](O)[C@@H](O)[C@@H]1O` (stereo not given in full), the IC50 entry is “inactive”. The same measure for `O=C1C(N2CCOCC2)=C(n2nnc3ccccc32)C(=O)c2ccccc21`: “inactive”; for `CC[C@@H]1CC=C[C@H]2[C@H]1C(=O)N(Cc1ccccc1)[C@H]2c1ccoc1`: “inactive”.

With `Cc1nn(C(C)(C)C)c(C)c1/C=N/OC(=O)Nc1ccc(Cl)cc1`, the IC50 is < 0.16 µM.

Regarding `CCCCc1ccc(NC(=S)Nc2ccc(Cl)c(S(=O)(=O)N(C)C)c2)cc1`, the IC50 was > 10 µM (inactive). The result for `N#C/C(=C\c1ccc([N+](=O)[O-])o1)C(=O)Nc1ccc(F)cc1` reads > 10 µM (inactive); that for `O=[N+]([O-])c1ccc(-c2nc(C(Cl)Cl)c3ccccc3n2)cc1`, 1.34 µM. For `CC(C)(C)OC(=O)CNC(=O)c1[nH]cnc1C(=O)Nc1ccc(Cl)cc1`, the IC50 entry was “inactive”. Take `CCC(C)[C@@H](NC(=O)OC(C)(C)C)c1nnc(S(=O)(=O)Cc2cccc(C)c2)o1` (stereo not given in full): the IC50 is 4.55 µM.

For the compound `C=CCn1c(SCC(=O)c2[nH]c(C)c(C(=O)OC)c2C)nc2scc(-c3ccc(OC)c(OC)c3)c2c1=O`, the IC50 entry is “inactive”. In the case of `O=C1CC(c2cccc(Cl)c2)CC(O)=C1C=Nc1cccc(Cl)c1` (stereo not given), the IC50 was > 10 µM (inactive).

Take `O=C(CCl)Nc1cccc(-c2cnc3ccccc3n2)c1`: the IC50 is > 10 µM (inactive).

Turning to `CCN=C1NN=C(c2cc(C)n(Cc3ccco3)c2C)CS1`, the IC50 was < 0.16 µM. Consider `COC(=O)[C@@H]1[C@@H](C(=O)OC)C2(c3ccccc3-c3ccccc32)N(c2ccc(Cl)cc2)N1C#N`, for which the IC50 was > 10 µM (inactive). As to `OC(CNCCc1ccc(C(F)(F)F)cc1)COc1ccc2ccccc2c1` (stereo not given), the IC50 entry was “inactive”. The same measure for `O=C(Cn1c(C(F)(F)F)nc2ccccc21)N=Nc1c(O)[nH]c2ccc(Br)cc12`: > 10 µM (inactive). With `FC(F)(F)c1cccc(NC(=S)Nc2ccc(Cl)cc2Cl)c1`, the IC50 was > 10 µM (inactive).

As for `Cc1ccc(-c2ccc(/C=C3\C(=O)ON=C3c3ccccc3)o2)c([N+](=O)[O-])c1`, the IC50 is > 10 µM (inactive).

With `Cc1cc(C)c(S(=O)(=O)NCCn2c(C)cc3ccccc32)c(C)c1`, the IC50 is > 10 µM (inactive). As for `COc1cccc(-n2nnnc2S(C)(=O)=O)c1`, the IC50 result was “inactive”. The result for `CCCCCn1c(SCCC(C)C)nc2c1c(=O)[nH]c(=O)n2C` reads “inactive”; that for `COc1ccc(NC(=O)/C(Cl)=C(/Cl)S(=O)(=O)Cc2ccc(C)cc2)cn1`, “inactive”. As for `COc1oc(-c2ccc(Cl)cc2)nc1C(F)(F)F`, the IC50 entry is “inactive”. As to `O=[N+]([O-])c1ccc(/C=N/N=C/c2ccc([N+](=O)[O-])o2)o1`, the IC50 was 2.59 µM.

In the case of `CCOc1cc(C(=O)CSc2nnc(CNc3ccc(Cl)cc3)o2)ccc1NC(=O)CC`, the IC50 entry was “inactive”. Turning to `CC(C)C[C@H](NC(=O)OC(C)(C)C)C(=O)N/N=C/C1=Cc2ccccc2OC1C` (stereo not given in full), the IC50 result is “inactive”.

On to `O=C(Nc1cccc(Cl)c1Cl)c1cc(S(=O)(=O)NCCc2ccccc2)ccc1F`, for which the IC50 result was “inactive”. Turning to `C/C(N)=C(/C#N)C(=O)COC(=O)C1CCC(C(C)(C)C)CC1` (stereo not given), the IC50 was > 10 µM (inactive).

With `CC(C)(C)C1C/C(=C/c2ccco2)C(=O)/C(=C/c2ccco2)C1` (stereo not given), the IC50 is > 10 µM (inactive). The result for `CC(C)(C)c1ccc(S(=O)(=O)NCC(=O)Nc2sc3c(c2C(N)=O)CCCC3)cc1` reads > 10 µM (inactive).

Take `O=C1C(Cl)=C(N2CCCCC2)C(=O)C(Cl)=C1c1cnc(N2CCCCC2)s1`: the IC50 result was “inactive”. With `Cc1nc(SCC(=O)Nc2cc(C)on2)c2c3c(sc2n1)CCCC3`, the IC50 is > 10 µM (inactive). For the compound `O=S(=O)(/C(=C/c1ccc(C(F)(F)F)cc1)c1nc2ccccc2[nH]1)c1ccccc1`, the IC50 was 2.22 µM.

As for `CCOc1ccc(/C=C/C2=Cc3c(sc(NC(=O)CSc4n[nH]c(N)n4)c3C#N)C(C)(C)C2)cc1`, the IC50 was > 10 µM (inactive).

Consider `O=S(=O)(NCC(Nc1ccc(Cl)cc1)c1ccccc1)c1ccc(Cl)cc1` (stereo not given), for which the IC50 is > 10 µM (inactive).

Regarding `CCCCc1nc(NCCN)c(C#N)c2c1CSC(C)(C)C2`, the IC50 result was “inactive”.

Consider `CC1=C/C(=N\OS(=O)(=O)c2ccccc2)C(C)=CC1=O`, for which the IC50 was 2.69 µM.

In the case of `FC(F)(F)c1cccc(CN2CCC(c3cc(-c4cccs4)n[nH]3)CC2)c1`, the IC50 was > 10 µM (inactive). `COc1ccc(C(=O)NNC(=O)c2ccccn2)cc1`: the IC50 entry was “inactive”.

As to `NC(=O)c1ccc(C(F)(F)F)n(Cc2ccc(Cl)cc2)c1=O`, the IC50 result was “inactive”. With `O=C(C1=C(c2ccccc2)C(=O)c2ccccc2C1=O)c1ccccc1`, the IC50 result was “inactive”. The result for `COc1ccc(C2=NN(C(=O)c3ccco3)C(c3cc4ccccc4nc3Cl)C2)cc1` (stereo not given) reads > 10 µM (inactive); that for `C=C(C)COc1ccc(-c2n[nH]c(C)c2-c2ccccc2OC)c(O)c1`, > 10 µM (inactive); that for `CC(C)(C)c1ccc(-c2n[nH]c(=S)n2C2CCCC2)cc1`, > 10 µM (inactive). The same measure for `COC(=O)c1cc(NC(=S)Nc2cc(Cl)cc(Cl)c2)cc(C(=O)OC)c1`: > 10 µM (inactive); for `O=C1C=CC(=O)N1N(c1ccccc1)c1ccccc1`: > 10 µM (inactive); for `Cc1cc(C(C)(C)C)oc1C(=O)N1CCN(C(=O)c2oc(C(C)(C)C)cc2C)CC1`: > 10 µM (inactive). The same measure for `CCCCCCn1c(N2CCC(C)CC2)nc2c1c(=O)[nH]c(=O)n2C`: > 10 µM (inactive); for `COc1cc(/C=C(\C#N)c2nc3ccccc3[nH]2)cc(Br)c1OCc1ccc(F)cc1`: “inactive”. For `Cc1cccc(NC(=S)NC(NC(=O)OCc2ccccc2)C(Cl)(Cl)Cl)c1` (stereo not given), the IC50 was > 10 µM (inactive). For the compound `COc1ccc(NC(=O)c2cc3cccc(OC)c3oc2=Nc2ccc(C(=O)O)cc2)cc1OC`, the IC50 result was “inactive”. The same measure for `C=C(C(=O)c1ccccc1)C(C)C(=C)C(=O)c1ccccc1`: “inactive”. On to `CCN1/C(=C/C(C)=C/c2sc3ccccc3[n+]2CC)Sc2ccccc21`, for which the IC50 was > 10 µM (inactive).

In the case of `COC(=O)c1ccccc1NC1=C/C(=N\S(=O)(=O)c2cccs2)c2ccccc2C1=O`, the IC50 entry is “inactive”. For `COc1ccc(Cn2c(SCc3ccccc3C)nc3cc(OC)c(OC)cc3c2=N)cc1`, the IC50 was > 10 µM (inactive). For `Cn1cnc([N+](=O)[O-])c1S(=O)(=O)c1ccc(Cl)cc1`, the IC50 result is “inactive”. For `O=[N+]([O-])c1ccc(/C=N/n2c(C3CCCCC3)n[nH]c2=S)cc1`, the IC50 is > 10 µM (inactive). In the case of `Cc1ccc2c(c1)c1c(n2CC(O)Cn2c(C)nc3ccccc32)CCCC1` (stereo not given), the IC50 result is “inactive”. Consider `Nc1c(S(=O)(=O)c2ccccc2)c2nc3ccccc3nc2n1/N=C/c1cccc(O)c1`, for which the IC50 was > 10 µM (inactive). For `CCOc1cc(S(=O)(=O)Nc2ccc(CC)cc2)ccc1Cl`, the IC50 result was “inactive”. For the compound `Cc1ccc(NC(=O)CSc2nc3ccccc3c3nc(CCc4c(C)n[nH]c4C)nn23)cc1F`, the IC50 was > 10 µM (inactive).
